Experimental data reported in ChEMBL document CHEMBL1201862, “PubChem BioAssay data set” (2004).
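A five-concentration, 48-hour dose response in 96-well plates underlies each endpoint, interpolated linearly between surrounding concentrations. GI50: concentration for 50% inhibition of growth.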 Active and inactive are the calls of the source. No stated cut-off is given here; in the data, active = GI50 up to about 1.1 µM and inactive = higher.

Key:
Experiment in all cases: NCI tumour cell line growth inhibition, 48 h
[1] = test system: DU-145
[2] = test system: HCT-116
[3] = test system: MDA-N
[4] = test system: PC-3
[5] = test system: HCT-15
[6] = test system: A549
[7] = test system: HL-60
[8] = test system: COLO 205
[9] = test system: NCI-H522
[10] = test system: K562
[11] = test system: ACHN
[12] = test system: SK-MEL-5
[13] = test system: UO-31
[14] = test system: SR
[15] = test system: OVCAR-4
[16] = test system: SN12C
[17] = test system: NCI-H226
[18] = test system: MDA-MB-435
[19] = test system: OVCAR-5
[20] = test system: HCC 2998

Compound | GI50 [1] | GI50 [2] | GI50 [3] | GI50 [4] | GI50 [5] | GI50 [6] | GI50 [7] | GI50 [8] | GI50 [9] | GI50 [10] | GI50 [11] | GI50 [12] | GI50 [13] | GI50 [14] | GI50 [15] | GI50 [16] | GI50 [17] | GI50 [18] | GI50 [19] | GI50 [20]
CC(C)CC1c2[nH]c3ccccc3c2C[C@H]2C(=O)NC(CCCCNC(=O)OC(C)(C)C)C(=O)N12 (some centres not stated) | 38 µM (inactive) | 30 µM (inactive) | 37.5 µM (inactive) | 17.9 µM (inactive) | 31.8 µM | 33.7 µM (inactive) | 21.7 µM (inactive) | 27.7 µM (inactive) | 19.5 µM (inactive) | 32 µM (inactive) | 29 µM (inactive) | 33.2 µM (inactive) | 38.1 µM (inactive) | 11.9 µM (inactive) | 37.7 µM (inactive) | 33.9 µM (inactive) | 55.3 µM (inactive) | 33 µM (inactive) | 61.5 µM (inactive) | 
COc1ccc(C2=C(N)c3c(OC)cccc3C2=O)cc1 | > 100 µM (inactive) | > 100 µM (inactive) | > 100 µM (inactive) | > 100 µM (inactive) | > 100 µM |  | > 100 µM (inactive) | > 100 µM (inactive) |  | > 100 µM (inactive) | > 10 µM (inactive) |  | > 100 µM (inactive) | > 100 µM (inactive) | > 100 µM (inactive) | > 100 µM (inactive) | > 100 µM (inactive) | > 100 µM (inactive) | > 100 µM (inactive) | > 100 µM (inactive)
CCOC(=O)c1nc2ccccc2nc1Oc1cc(OC)c(OC)c(OC)c1 | > 100 µM (inactive) | > 100 µM (inactive) | > 100 µM (inactive) | > 100 µM (inactive) | > 100 µM | > 100 µM (inactive) | > 100 µM (inactive) | > 100 µM (inactive) | 83.4 µM (inactive) |  | 46.9 µM (inactive) | > 100 µM (inactive) | > 100 µM (inactive) | > 100 µM (inactive) | > 100 µM (inactive) | > 100 µM (inactive) |  | > 100 µM (inactive) | > 100 µM (inactive) | > 100 µM (inactive)
CC(=O)N1N=C(c2c(O)ccc3ccccc23)CC1C(=O)c1ccco1 (configuration not stated) | 47.4 µM (inactive) | 20.4 µM (inactive) | 23.9 µM (inactive) | 23 µM (inactive) | 37.9 µM | 28.2 µM (inactive) |  | 24.7 µM (inactive) | 28.2 µM (inactive) | 16.9 µM (inactive) | 33 µM (inactive) | 22.8 µM (inactive) | 21.6 µM (inactive) | 13.6 µM (inactive) | 36 µM (inactive) | 32.4 µM (inactive) | 77.1 µM (inactive) | 28.5 µM (inactive) | 55 µM (inactive) | 50.1 µM (inactive)
O=[N+]([O-])c1ccc2nc3ccc([N+](=O)[O-])cn3c2c1 | 39.2 µM (inactive) | 33.4 µM (inactive) | > 100 µM (inactive) | > 100 µM (inactive) | > 100 µM | 39.1 µM (inactive) | > 100 µM (inactive) | > 100 µM (inactive) | 23.7 µM (inactive) | > 100 µM (inactive) | > 100 µM (inactive) | > 100 µM (inactive) | 29.9 µM (inactive) | > 100 µM (inactive) | 29.1 µM (inactive) | 42.4 µM (inactive) | > 100 µM (inactive) | > 100 µM (inactive) | 32.5 µM (inactive) | 
COc1cccc(/N=N/N2CCCC2)c1 | > 100 µM (inactive) | > 100 µM (inactive) | 41.4 µM (inactive) | 27.2 µM (inactive) | > 100 µM |  | 34.6 µM (inactive) | > 100 µM (inactive) | > 100 µM (inactive) | > 100 µM (inactive) | > 100 µM (inactive) | > 100 µM (inactive) | > 100 µM (inactive) | 40.2 µM (inactive) | > 100 µM (inactive) | > 100 µM (inactive) | > 100 µM (inactive) | 59.2 µM (inactive) | > 100 µM (inactive) | 
c1ccc(C2SCc3nc4cc5ccccc5cc4n32)cc1 (configuration not stated) | > 100 µM (inactive) | > 100 µM (inactive) | > 100 µM (inactive) | > 100 µM (inactive) | > 100 µM | > 100 µM (inactive) |  | > 100 µM (inactive) |  | > 100 µM (inactive) | > 100 µM (inactive) |  | > 100 µM (inactive) | > 100 µM (inactive) | 89.3 µM (inactive) | > 100 µM (inactive) | > 100 µM (inactive) | > 100 µM (inactive) | > 100 µM (inactive) | > 100 µM (inactive)
Cc1c(Cl)c(=O)oc2cc(OCC(O)COC(C)C)ccc12 (configuration not stated) | 99.5 µM (inactive) | 43 µM (inactive) | 48.1 µM (inactive) | 43.5 µM (inactive) |  | 42.2 µM (inactive) | 22.1 µM (inactive) | 14 µM (inactive) | > 100 µM (inactive) | 23.3 µM (inactive) | 44.1 µM (inactive) | 19.8 µM (inactive) | 40.3 µM (inactive) | 31.9 µM (inactive) | 38.9 µM (inactive) |  |  | 60.3 µM (inactive) | > 100 µM (inactive) | 16.8 µM (inactive)
O=C(Nc1nncs1)NS(=O)(=O)n1c(=S)sc2ccccc21 | > 100 µM (inactive) | > 100 µM (inactive) | > 100 µM (inactive) | > 100 µM (inactive) | > 100 µM | > 100 µM (inactive) | 51.9 µM (inactive) | > 100 µM (inactive) | 48.1 µM (inactive) | > 100 µM (inactive) | > 100 µM (inactive) | > 100 µM (inactive) | > 100 µM (inactive) | 36.4 µM (inactive) | > 100 µM (inactive) | > 100 µM (inactive) |  | > 100 µM (inactive) | > 100 µM (inactive) | > 100 µM (inactive)
COc1ccc(C(=O)/C=C/c2ccc(OCC#N)cc2)cc1 | 30 µM (inactive) | 12.2 µM (inactive) | > 10 µM (inactive) | 36.6 µM (inactive) | 23.3 µM | 28.5 µM (inactive) |  | 21.7 µM (inactive) | 18.1 µM (inactive) | 28.2 µM (inactive) | 36.1 µM (inactive) | 15.1 µM (inactive) | 16.6 µM (inactive) | 22.7 µM (inactive) | 32.7 µM (inactive) | 19.9 µM (inactive) | 24.7 µM (inactive) | 24.7 µM (inactive) | > 100 µM (inactive) | 17.3 µM (inactive)
CC(=O)/C(=C\I)c1ccccc1 | 3.38 µM (inactive) | 2.26 µM (inactive) | 1.62 µM (inactive) | 2.51 µM (inactive) | 1.83 µM | 15.7 µM (inactive) | 1.08 µM (active) | 1.71 µM (inactive) |  | 0.481 µM (active) |  |  | 3.85 µM (inactive) | 1.49 µM (inactive) |  | 1.99 µM (inactive) | 21.2 µM (inactive) | 3.86 µM (inactive) | 1.49 µM (inactive) | 
CC(=O)OC1(C)N=NC2(CCCCC2)O1 (configuration not stated) | > 100 µM (inactive) | > 100 µM (inactive) | > 100 µM (inactive) | > 100 µM (inactive) | > 100 µM | > 100 µM (inactive) | 18.9 µM (inactive) | > 100 µM (inactive) | > 100 µM (inactive) | > 100 µM (inactive) | > 100 µM (inactive) | > 100 µM (inactive) |  | > 100 µM (inactive) | > 100 µM (inactive) | > 100 µM (inactive) | > 100 µM (inactive) | > 100 µM (inactive) | > 100 µM (inactive) | 
O=C1CSC(=O)/C1=C\NNc1nc2ccccc2o1 | 47.5 µM (inactive) | 17 µM (inactive) | 52.1 µM (inactive) | 21.8 µM (inactive) | 12 µM | 27.7 µM (inactive) | 0.586 µM (active) | 27 µM (inactive) |  |  | 32.6 µM (inactive) | 14.4 µM (inactive) |  | 24.5 µM (inactive) | 38.3 µM (inactive) | 29.6 µM (inactive) | 36 µM (inactive) | 65.9 µM (inactive) | 60.7 µM (inactive) | 54.1 µM (inactive)
Cc1[nH]c2ccccc2c1/C=N/c1ccc(Oc2ccccc2)cc1 | 16.1 µM (inactive) | 16.6 µM (inactive) | 17.2 µM (inactive) | 13.8 µM (inactive) | 18.6 µM | 17.1 µM (inactive) | 12.1 µM (inactive) | 15.9 µM (inactive) | 14.1 µM (inactive) | 23.2 µM (inactive) | 16.3 µM (inactive) | 15.2 µM (inactive) | 12 µM (inactive) | 19.1 µM (inactive) | 14.9 µM (inactive) | 16.6 µM (inactive) |  | 17.2 µM (inactive) | 16.3 µM (inactive) | 
CCOn1c(C2(CC3CCN(C(=O)c4ccccc4)CC3)OCCO2)cc2ccccc21 | 18.1 µM (inactive) | 15.8 µM (inactive) | 16.5 µM (inactive) | 12.6 µM (inactive) | 22.5 µM | 16.9 µM (inactive) |  | 16.4 µM (inactive) | 19.3 µM (inactive) | 11.4 µM (inactive) | 14.6 µM (inactive) | 11.9 µM (inactive) | 14 µM (inactive) | 6.27 µM (inactive) | 15.2 µM (inactive) | 17.2 µM (inactive) | 0.084 µM (active) | 14.3 µM (inactive) | 19 µM (inactive) | 
O=S(=O)(O)c1ccc(-c2nnc(-c3ccccn3)nc2-c2ccc(S(=O)(=O)O)o2)o1 | > 100 µM (inactive) | > 100 µM (inactive) | > 100 µM (inactive) | > 100 µM (inactive) | > 100 µM | > 100 µM (inactive) | 0.329 µM (active) | > 100 µM (inactive) | > 100 µM (inactive) | > 100 µM (inactive) | > 100 µM (inactive) | > 100 µM (inactive) | > 100 µM (inactive) | > 100 µM (inactive) | > 100 µM (inactive) | > 100 µM (inactive) | > 100 µM (inactive) | > 100 µM (inactive) | > 100 µM (inactive) | 
